Assay results taken from patent publication US6525059B1, “Substituted pyrazoles as p38 kinase inhibitors” (G. D. Searle & Company, priority 1998, dated 2003).
pIC50: −log10 of the molar value. Where “and” joins values, the source holds several entries; their conditions need not be identical. Equal values may be shown once. Where a name gives a salt, the structure may show the parent alone. Read-outs that look alike come from different tables or passages of the source.

Columns and labels:
[1] = target: T1, human GST-p38 kinase alpha (Homo sapiens, UniProt Q16539); assay: p38 kinase in vitro assay, second format, phosphorylation of EGFRP with 33P-ATP; assay type: biochemical; conditions: read-out: p38α Kinase Assay IC50
T1 construct: The coding region of the human p38a cDNA was obtained by PCR-amplification from RNA isolated from the human monocyte cell line THP.1; made in house; host or cells: E. coli DH10B
Description: A second assay format was also employed that is based on p38 kinase alpha induced phosphorylation of EGFRP (epidermal growth factor receptor peptide, a 21 mer) in the presence of ^33P-ATP. Compounds were tested in 10 fold serial dilutions over the range of 100 μM to 0.001 μM in 10% DMSO. Each concentration of inhibitor was tested in triplicate. Compounds were evaluated in 50 μl reaction volumes in the presence of 25 mM Hepes pH 7.5, 10 mM magnesium acetate, 4% glycerol, 0.4% bovine serum albumin, 0.4 mM DTT, 50 μM unlabeled ATP, 25 μg EGFRP (200 μM), and 0.05 uCi gamma ^33P-ATP. Reactions were initiated by addition of 0.09 μg of activated, purified human GST-p38 kinase alpha. Activation was carried out using GST-MKK6 (5:1, p38: MKK6) for one hour at 30° C. in the presence of 50 μM ATP. Following incubation for 60 minutes at room temperature, the reaction was stopped by addition of 150 μl of AG 1×8 resin in 900 mM sodium formate buffer, pH 3.0 (1 volume resin to 2 volumes buffer). The mixture was mixed three times with pipetting and the resin was allowed to settle. A total of 50 μl of clarified solution head volume was transferred from the reaction wells to Microlite-2 plates. 150 μl of Microscint 40 was then added to each well of the Microlite plate, and the plate was sealed, mixed, and counted.

TNF-α = assay: Rat assay: LPS-challenged rats, serum TNF-α by ELISA; assay type: in vivo; conditions: for inhibition in vivo at 3 mg/kg: read-out: Rat LPS Assay % Inhibition; for inhibition in vivo at 10 mg/kg: Table 9, dose 10 mg/kg
Description: The efficacy of the novel compounds in blocking the production of TNF also was evaluated using a model based on rats challenged with LPS. Male Harlen Lewis rats [Sprague Dawley Co.] were used in this model. Each rat weighed approximately 300 g and was fasted overnight prior to testing. Compounds administration was typically by oral gavage (although intraperitoneal, subcutaneous and intravenous administration were also used in a few instances) 1 to 24 hours prior to the LPS challenge. Rats were administered 30 μg/kg LPS [salmonella typhosa, Sigma Co.] intravenously via the tail vein. Blood was collected via heart puncture 1 hour after the LPS challenge. Serum samples were stored at −20° C. until quantitative analysis of TNF-α by Enzyme Linked-Immuno-Sorbent Assay (“ELISA”) [Biosource]. Additional details of the assay are set forth in Perretti, M., et al., Br. J. Pharmacol. (1993), 110, 868-874, which is incorporated by reference in this application.
In vivo assessment of the ability of the compounds to inhibit LPS-stimulated TNF release in the rat is shown in the column identified as:
wherein in the dose is milligram per kilogram (mpk) administered by oral gavage and the predose time indicates the number of hours before LPS challenge when the compound is administered.

human p38 kinase alpha = target: T2, human p38 kinase alpha (Homo sapiens, UniProt Q16539); assay: p38 kinase in vitro assay, phosphorylation of biotinylated PHAS-I with gamma 32P-ATP; assay type: biochemical; conditions: read-out: P38 alpha kinase IC50
T2 construct: The coding region of the human p38a cDNA was obtained by PCR-amplification from RNA isolated from the human monocyte cell line THP.1; GST (N); made in house; host or cells: E. coli DH10B
Summary of the method: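 Radiometric filter-capture read-out: streptavidin plates trap biotin-PHAS-I labelled by activated (MKK6) human p38α from γ-32P-ATP. Buffer 25 mM HEPES pH 7.5, 10 mM magnesium acetate, 50 μM cold ATP; reactions 1 h or overnight at 30 °C; inhibitors 10-fold dilutions 100 to 0.001 μM, triplicates, 1% DMSO.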

human TNF = assay: TNF inhibition: human whole blood assay; assay type: cell-based; conditions: for inhibition at 5 µM: read-out: Human Whole Blood % Inhib @ conc.
Description: Human peripheral blood is obtained in heparinized tubes. A 190 μL aliquot of blood is placed in each well of a 96 well u-bottom plate. […] After one hour of incubation at 37° C., […] of lipopolysaccharide (Salmonella typhosa, Sigma) in phosphate buffered saline is added resulting in a final concentration of […]. After four to five hours of incubation at 37° C., the supernatants are harvested and assayed at 1:10 or 1:20 dilutions for human TNF using ELISA.

[2] = Rattus norvegicus, po, Table 8, dose 3.0 mg/kg
[3] = Homo sapiens, TNF production, LPS-stimulated human whole blood, read-out: Human Whole Blood IC50
[4] = Rattus norvegicus, po, 5 mpk oral gavage, 4 h before LPS challenge, read-out: Rat LPS Model % Inhibition @ dose @ predose time
[5] = Rattus norvegicus, po, Table 8, dose 20.0 mg/kg
[6] = TNF production, LPS-stimulated human whole blood
[7] = Rattus norvegicus, po, Table 9, dose 20 mg/kg

T2 sequence (Q16539 whole entry): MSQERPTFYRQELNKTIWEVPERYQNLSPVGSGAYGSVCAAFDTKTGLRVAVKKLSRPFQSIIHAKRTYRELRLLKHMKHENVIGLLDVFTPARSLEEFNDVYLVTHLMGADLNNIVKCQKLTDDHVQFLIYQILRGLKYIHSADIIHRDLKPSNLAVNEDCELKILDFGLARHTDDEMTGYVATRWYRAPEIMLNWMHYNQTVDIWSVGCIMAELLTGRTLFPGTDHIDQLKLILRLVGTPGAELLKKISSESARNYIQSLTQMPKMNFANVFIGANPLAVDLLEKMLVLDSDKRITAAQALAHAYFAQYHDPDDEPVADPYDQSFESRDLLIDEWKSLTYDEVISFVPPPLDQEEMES
T1 sequence (Q16539 whole entry): as above

## C#CCNc1nccc(-c2cn[nH]c2-c2ccc(F)cc2)n1 [Example A-324, 4-[3-(4-fluorophenyl)-1H-pyazol-4-yl]-N-2-propynyl-2-pyrimidinamine]
[1]; Table 8, 10% DMSO
  pIC50: 7.10
TNF-α; [2]
  inhibition in vivo at 3 mg/kg: 44%

## CC(C)N1CCC(c2[nH]nc(-c3ccc(C(F)(F)F)cc3)c2-c2ccncc2)CC1 [Example C-85]
Human p38 kinase alpha
  pIC50: 6.24
Human TNF; [3]
  pIC50: < 4.60

## O=C(O)CCC(=O)N1CCN(c2n[nH]c(-c3ccc(Cl)cc3)c2-c2ccncc2)CC1 [A-321 (dihydrate), 4-[5-(4-chlorophenyl)-4-(4-pyridinyl)-1H-pyrazol-3-yl]-γ-oxo-1-piperazinebutanoic acid, dihydrate]
Human TNF; Homo sapiens, read-out: TNF Inhibition-Human Whole Blood Assay
  pIC50: < 4.60

## Fc1ccc(-c2n[nH]c(N3CCC4(CC3)OCCO4)c2-c2ccncc2)cc1 [Example A-380, 8-[5-(4-fluorophenyl)-4-(4-pyridinyl)-1H-pyrazol-3-yl]-1,4-dioxa-8-azaspiro[4.5]decane]
[1]; Table 9, 10% DMSO
  pIC50: 6.07
TNF-α; Rattus norvegicus, po, Table 9, dose 3 mg/kg
  inhibition in vivo at 3 mg/kg: 33%
TNF-α; Rattus norvegicus, po
  inhibition in vivo at 10 mg/kg: 62%
TNF-α; Rattus norvegicus, po, Table 9, dose 30 mg/kg
  inhibition in vivo at 30 mg/kg: 85%

## CC(=O)N[C@H]1CC[C@@H](c2[nH]nc(-c3ccc(Cl)cc3)c2-c2ccncc2)CC1 [Example C-95, 5- cis-[4-N-(ACETYL)AMINOCYCLOHEXYL]-4-(4-PYRIDYL)-3-(4-CHLOROPHENYL)PYRAZOLE]
Human TNF; [3]
  pIC50: 5.41
TNF-α; [4]
  inhibition in vivo at 5 mg/kg: 32%

## CCOC(=O)N1CCC(Nc2n[nH]c(-c3ccc(Cl)cc3)c2-c2ccncc2)CC1 [Example A-331, ethyl 4-[[5-(4-chlorophenyl)-4-(4-pyridinyl)-1H-pyrazol-3-yl]amino]-1-piperidinecarboxylate]
[1]; Table 8, 10% DMSO
  pIC50: 6.19
TNF-α; [5]
  inhibition in vivo at 20 mg/kg: 13%

## Fc1ccc(-c2n[nH]c([C@H]3CCCN3)c2-c2ccncc2)cc1 [Example C-125, (R)-5-(2-PYROLIDINYL)-4-(4-PYRIDYL)-3-(4-FLUOROPHENYL)PYRAZOLE]
Human p38 kinase alpha
  pIC50: 5.14
Human TNF; [3]
  pIC50: < 4.60

## COCC(=O)NC1CCC(c2[nH]nc(-c3ccc(Cl)cc3)c2-c2ccncc2)CC1 (stereo not drawn) [Example C-96, 5-cis-[4-N-(METHOXYACETYL)AMINOCYCLOHEXYL]-4-(4-PYRIDYL)-3-(4-CHLOROPHENYL)PYRAZOLE]
Human TNF; [3]
  pIC50: 5.68
TNF-α; [4]
  inhibition in vivo at 5 mg/kg: 38%

## C#CCN1CCC(c2[nH]nc(-c3ccc(Cl)cc3)c2-c2ccncc2)CC1 [Example C-81]
Human p38 kinase alpha
  pIC50: 7.43
Human TNF; [6]
  inhibition at 5 µM: 40%

## Fc1ccc(-c2n[nH]c(C3CCCNC3)c2-c2ccncc2)cc1 (centres unmarked) [Example C-90, 5-(3-piperidyl)-4-(4-pyridyl)-3-(4-fluorophenyl)pyrazole]
Human p38 kinase alpha
  pIC50: 7.43
Human TNF; [3]
  pIC50: 6.32

## Fc1ccc(-c2n[nH]c([C@@H]3CCCNC3)c2-c2ccncc2)cc1 [Example C-127]
Human p38 kinase alpha
  pIC50: 7.42
Human TNF; [3]
  pIC50: 6.57

## O=C1CCC(Nc2cc(-c3c[nH]nc3-c3ccc(F)cc3)ccn2)CC1 [Example A-387, 4-[[4-[3-(4-fluorophenyl)-1H-pyrazol-4-yl]-2-pyridinyl]amino]cyclohexanone]
[1]; Table 9, 10% DMSO
  pIC50: 8.30
TNF-α; [7]
  inhibition in vivo at 20 mg/kg: 83%

## OC1CCN(c2[nH]nc(-c3ccc(F)cc3)c2-c2ccncc2)CC1 [Example A-379, 1-[5-(4-fluorophenyl)-4-(4-pyridinyl)-1H-pyrazol-3-yl]-4-piperidinol]
[1]; Table 9, 10% DMSO
  pIC50: 6.72
TNF-α; Rattus norvegicus, po
  inhibition in vivo at 10 mg/kg: 61%

## OCCCCc1[nH]nc(-c2ccc(F)cc2)c1-c1ccncc1 [Example C-132, 5-[4-(1-HYDROXY)BUTYL]-4-(4-PYRIDYL)-3-(4-FLUOROPHENYL)PYRAZOLE]
Human p38 kinase alpha
  pIC50: 7.07
Human TNF; [6]
  inhibition at 5 µM: 44%

## CC(C)(N)C(=O)NCc1[nH]nc(-c2ccc(Cl)cc2)c1-c1ccncc1 [Example C-121]
Human TNF; Homo sapiens, read-out: Human Whole Blood IC50, μM
  IC50: 15.3 µM
TNF-α; Rattus norvegicus, po, read-out: Rat LPS Model % Inhibition @ dose @ predose time
  inhibition in vivo at 5 mg/kg: 39%

## CN1CCC(c2[nH]nc(-c3cccc(C(F)(F)F)c3)c2-c2ccncc2)CC1 [Example C-87]
Human p38 kinase alpha
  pIC50: 7.57
Human TNF; [3]
  pIC50: 6.47

## C=CCN1CCC(c2[nH]nc(-c3ccc(Cl)cc3)c2-c2ccncc2)CC1 [Example C-80]
Human p38 kinase alpha
  pIC50: 8.10
Human TNF; [6]
  inhibition at 5 µM: 51%

## CC1CN(c2[nH]nc(-c3ccc(Cl)cc3)c2-c2ccncc2)CCN1 (centres unmarked) [Example A-343, 1-[5-(4-chlorophenyl)-4-(4-pyridinyl)-1H-pyrazol-3-yl]-3-methylpiperazine]
[1]; Table 8, 10% DMSO
  pIC50: 7.80
TNF-α; [5]
  inhibition in vivo at 20 mg/kg: 96%

## O=C(CO)N1CCC(c2[nH]nc(-c3ccc(Cl)cc3)c2-c2ccncn2)CC1 [Example D-2, N-(2-Hydroxyacetyl)-5-(4-piperidyl)-4-(4-pyrimidyl)-3-(4-chlorophenyl)pyrazole hydrochloride]
Human TNF; Homo sapiens, TNF production, LPS-stimulated human whole blood, read-out: HWB IC50
  pIC50: 5.75
TNF-α; 1.0 mg/kg oral gavage, 4 hours before LPS challenge, hydrochloride
  ratLPS/% Inh @1.0 (mg/kg): 89.0%
TNF-α; Rattus norvegicus, po, 5.0 mg/kg oral gavage, 4 hours before LPS challenge, read-out: ratLPS/% Inh @5.0 (mg/kg)
  inhibition in vivo at 5 mg/kg: 95%

## Clc1ccc(-c2n[nH]c(C3CCN(Cc4nccs4)CC3)c2-c2ccncc2)cc1 [Example C-82]
Human p38 kinase alpha
  pIC50: 6.82
Human TNF; [3]
  pIC50: 5.14

## O=C1CCN(c2n[nH]c(-c3ccc(F)cc3)c2-c2ccncc2)CC1 [Example A-378, 1-[5-(4-fluorophenyl)-4-(4-pyridinyl)-1H-pyrazol-3-yl]-4-piperidinone]
[1]; Table 9, 10% DMSO
  pIC50: 5.21
TNF-α; Rattus norvegicus, po
  inhibition in vivo at 10 mg/kg: 73%

## Fc1ccc(-c2n[nH]c([C@@H]3CCCN3)c2-c2ccncc2)cc1 [Example C-123, (S)-5-(2-PYROLIDINYL)-74-(4-PYRIDYL)-3-(4-FLUOROPHENYL)PYRAZOLE]
Human p38 kinase alpha
  pIC50: 6.17
Human TNF; [3]
  pIC50: < 4.60

## CS(=O)(=O)N1CCN(c2n[nH]c(-c3ccc(Cl)cc3)c2-c2ccncc2)CC1 [Example A-320, 1-[5-(4-chlorophenyl)-4-(4-pyridinyl)-1H-pyrazol-3-yl]-4-(methylsulfonyl)piperazine, monohydrate]
[1]; Table 8, 10% DMSO
  pIC50: 7.30 and 6.82
TNF-α; [2]
  inhibition in vivo at 3 mg/kg: 1%

## Fc1ccc(-c2n[nH]cc2-c2ccnc(NCCN3CCCCC3)c2)cc1 [Example A-375, 4-[3-(4-fluorophenyl)-1H-pyrazol-4-yl]-N-[2-(1-piperidinyl)ethyl]-2-pyridinamine]
[1]; Table 9, 10% DMSO
  pIC50: 5.64
TNF-α; [7]
  inhibition in vivo at 20 mg/kg: 43%
